Laboratory results as given in patent US10034886B2, “GLP-1 receptor modulators” (Celgene International II SÀRL, priority 2014, dated 2018).
Read-outs that look alike come from different tables or passages of the source.

Target: T1, GLP-1R (Homo sapiens, UniProt P43220)
T1 construct: host or cells: GLP-1R CRE-bla CHO-K1 cells
Experiment: EC20 GLP-1(9-36) PAM cAMP assay: dose response of compound in the presence of fixed concentration of GLP-1(9-36)
Type: cell-based
Details: GLP-1R CRE-bla CHO-K1 cells, read-out: EC20 GLP-1(9-36) PAM EC50
Outline: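 GLP-1R CRE-bla CHO-K1 cells treated 30 min at 37 °C with 12-point compound dose response plus fixed EC20 GLP-1(9-36), with IBMX, in HBSS/HEPES/0.1% BSA pH 7.4. Total cAMP measured by luminescent detection against standard curve; EC50 and Emax from non-linear regression.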

[1] = dose response of compound in presence of fixed concentration of GLP-1(9-36)
[2] = compound dose response with fixed concentration of GLP-1(9-36)

T1 sequence (P43220 24-463): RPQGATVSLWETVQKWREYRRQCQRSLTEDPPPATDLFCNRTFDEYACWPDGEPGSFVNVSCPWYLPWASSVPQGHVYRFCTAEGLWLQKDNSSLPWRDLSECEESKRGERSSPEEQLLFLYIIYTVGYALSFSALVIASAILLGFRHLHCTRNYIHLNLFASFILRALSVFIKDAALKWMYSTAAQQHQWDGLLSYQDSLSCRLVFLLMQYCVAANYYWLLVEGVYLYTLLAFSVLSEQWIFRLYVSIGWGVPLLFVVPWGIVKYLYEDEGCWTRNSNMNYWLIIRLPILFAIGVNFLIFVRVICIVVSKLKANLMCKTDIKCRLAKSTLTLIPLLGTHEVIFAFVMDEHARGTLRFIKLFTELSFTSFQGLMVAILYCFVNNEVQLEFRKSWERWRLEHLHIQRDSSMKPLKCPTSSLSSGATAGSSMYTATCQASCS
T1 sequence (P01275 100-127 partner limits assumed): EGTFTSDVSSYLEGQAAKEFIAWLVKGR

| SMILES | EC50 [1] | EC50 [2] |
| --- | --- | --- |
| CCCCCCCOc1ccc(-c2cnc(-c3ccc(C[C@H](NC(=O)c4ccc(C(C)(C)C)s4)C(=O)N[C@@H](CC(=O)NC)C(=O)O)cc3)nc2)cc1 [Compound 512] | < 800 nM |  |
| CC(C)(C)c1ccc(C(=O)N[C@@H](Cc2ccc(-c3ncc(-c4ccc(-c5ccc(C(F)(F)F)c(F)c5)cc4F)cn3)cc2)C(=O)N2CC(C(=O)O)C2)s1 [Compound 1217] |  | < 800 nM |
| CC(C)(C)c1ccc(C(=O)N[C@@H](Cc2ccc(-c3ncc(-c4ccc(-c5cccc(C#N)c5)cc4F)cn3)cc2)C(=O)N2CC(C(=O)O)C2)s1 [Compound 1202] |  | 5000 to 10000 nM |
| CCC/C=C/CCOc1ccc(-c2cnc(-c3ccc(C[C@H](NC(=O)c4ccc(C(C)(C)C)cc4)C(=O)NCCC(=O)O)cc3)nc2)cc1 [Compound 716] | 800 to 2500 nM |  |
| CCC[C@H]1CC[C@H](C2CCN(c3cnc(-c4ccc(C[C@H](NC(=O)c5ccc(C(C)(C)C)s5)C(=O)N5CCC[C@H](C(=O)O)C5)cc4)nc3)CC2)CC1 [Compound 1456] |  | < 800 nM |
| CCCCCCCOc1ccc(-c2cnc(-c3ccc(C[C@H](NC(=O)c4ccc(C(C)(C)C)s4)C(=O)N[C@H](C(=O)O)C(C)c4ccccc4)cc3)nc2)cc1 (some centres unmarked) [Compound 899] | 2500 to 5000 nM |  |
| CCCc1ccc(-c2ccc(-c3cnc(-c4ccc(C[C@H](NC(=O)c5ccc(C(C)(C)C)s5)C(=O)N[C@H](C)C(=O)O)cc4)nc3)c(F)c2)cc1 [Compound 1320] |  | < 800 nM |
| CCC[C@H]1CC[C@H](C2CCN(c3cnc(-c4ccc(CC(NC(=O)c5ccc(C(C)(C)C)s5)C(=O)NS(=O)(=O)CCNC(=O)OC(C)(C)C)cc4)nc3)CC2)CC1 (some centres unmarked) [Compound 1548] |  | < 800 nM |
| Cc1ccccc1C1CCN(c2cnc(-c3ccc(C[C@H](NC(=O)c4ccc(C(C)(C)C)s4)C(=O)N4CC(C(=O)O)C4)cc3)nc2)CC1 [Compound 1475] |  | < 800 nM |
| CCCCCCCOc1ccc(-c2cnc(-c3ccc(C[C@H](NC(=O)c4ccc(C(C)(C)C)cc4)C(=O)NCCC(=O)O)cc3)nc2)cc1F [Compound 697] | 2500 to 5000 nM |  |
| Cc1ccc(/C=C/c2cnc(-c3ccc(C[C@H](NC(=O)c4ccc(C(C)(C)C)s4)C(=O)N[C@H](C)C(=O)O)cc3)nc2)cc1 [Compound 1264] |  | 800 to 2500 nM |
| CCC(CC)Oc1ccc(-c2cnc(-c3ccc(C[C@H](NC(=O)c4ccc(C(C)(C)C)cc4)C(=O)NCCC(=O)O)cc3)nc2)cc1 [Compound 696] | 2500 to 5000 nM |  |
| CCCCCCCOc1ccc(-c2cnc(-c3ccc(C[C@H](NC(=O)c4ccc(C(C)(C)C)s4)C(=O)NCCCN(CC)CC)cc3)nc2)cc1 [Compound 970] | 2500 to 5000 nM |  |
| CCCCCCCOc1ccc(-c2cnc(-c3ccc(C[C@H](NC(=O)c4ccc(C(C)(C)C)s4)C(=O)N[C@@H](CC(=O)N(C)C)C(=O)O)cc3)nc2)cc1 [Compound 513] | < 800 nM |  |
| CCCCCCCOc1ccc(-c2cnc(-c3ccc(C[C@H](NC(=O)c4oc(C(C)(C)C)cc4C)C(=O)N4CC(C(=O)O)C4)cc3)nc2)cc1 [Compound 1101] | 800 to 2500 nM |  |
| CCC[C@H]1CC[C@H](C2CCN(c3cnc(-c4ccc(C[C@H](NC(=O)c5ccc(C(C)(C)C)s5)C(=O)N[C@H](Cc5c[nH]cn5)C(=O)O)cc4)nc3)CC2)CC1 [Compound 1446] |  | < 800 nM |
| CCCOc1ccc(-c2cnc(-c3ccc(C[C@H](NC(=O)c4ccc(C(C)(C)C)s4)C(=O)N[C@H](C)C(=O)O)cc3)nc2)cc1C [Compound 1005] | 800 to 2500 nM |  |
| CCCCCCCOc1ccc(-c2cnc(-c3ccc(C[C@H](NC(=O)c4ccc(C(C)(C)C)s4)C(=O)N[C@H](C(=O)O)[C@H](O)C(C)C)cc3)nc2)cc1 [Compound 881] | 800 to 2500 nM |  |
| CCCCCCCOc1ccc(-c2cnc(-c3ccc(C[C@H](NC(=O)c4ccc(C(C)(C)C)cc4)C(=O)NC(CCCC)C(=O)O)cc3)nc2)cc1 (some centres unmarked) [Compound 547] | 800 to 2500 nM |  |
| C=C(N[C@H](Cc1ccccc1)C(=O)O)[C@H](Cc1ccc(-c2ncc(N3CCC([C@H]4CC[C@H](CCC)CC4)CC3)cn2)cc1)NC(=O)c1ccc(C(C)(C)C)s1 [Compound 1464] |  | < 800 nM |
| CC(C)(C)COc1ccc(-c2cnc(-c3ccc(C[C@H](NC(=O)c4ccc(C(C)(C)C)s4)C(=O)O)cc3)nc2)cc1 [Compound 1350] |  | 2500 to 5000 nM |
| CCCOc1ccc(C(=O)N[C@@H](Cc2ccc(-c3ncc(-c4ccc([C@H]5CC[C@H](CC)CC5)cc4)cn3)cc2)C(=O)O)cc1 [Compound 1377] |  | 800 to 2500 nM |
| CCC[C@H]1CC[C@H](C2CCN(c3cnc(-c4ccc(C[C@H](NC(=O)c5ccc(C)cc5)C(=O)N5CC(C(=O)O)C5)cc4)nc3)CC2)CC1 [Compound 1528] |  | 800 to 2500 nM |
| COc1ccccc1-c1ccc(-c2cnc(-c3ccc(C[C@H](NC(=O)c4ccc(C(C)(C)C)s4)C(=O)N[C@H](C)C(=O)O)cc3)nc2)cc1 [Compound 1012] | 2500 to 5000 nM |  |
| Cc1cc(-c2cnc(-c3ccc(C[C@H](NC(=O)c4ccc(C(C)(C)C)s4)C(=O)N[C@H](C)C(=O)O)cc3)nc2)ccc1OC(C)C [Compound 1007] | 800 to 2500 nM |  |

| SMILES | EC50 [1] | EC50 [2] |
| --- | --- | --- |
| CC(C)(C)c1ccc(C(=O)N[C@@H](Cc2ccc(-c3ncc(-c4ccc(-c5ccccc5Cl)cc4F)cn3)cc2)C(=O)N2CC(C(=O)O)C2)s1 [Compound 1195] | < 800 nM |  |
| CCCCOc1c(OC)ccc(-c2cnc(-c3ccc(C[C@H](NC(=O)c4ccc(C(C)(C)C)s4)C(=O)N[C@H](C)C(=O)O)cc3)nc2)c1F [Compound 1022] | 2500 to 5000 nM |  |
| CC(C)(C)c1ccc(C(=O)N[C@@H](Cc2ccc(-c3ncc(-c4ccc(C5CCC(F)(F)CC5)cc4)cn3)cc2)C(=O)N2CC(C(=O)O)C2)s1 [Compound 1183] | < 800 nM |  |
| C[C@@H](NC(=O)[C@H](Cc1ccc(-c2ncc(-c3ccc(C4CCCC4)cc3)cn2)cc1)NC(=O)c1ccc(C(C)(C)C)s1)C(=O)O [Compound 1046] | 800 to 2500 nM |  |
| CCCCCCCOc1ccc(-c2cnc(-c3ccc(C[C@H](NC(=O)c4ccc(CC(C)C)s4)C(=O)N4CC(C(=O)O)C4)cc3)nc2)cc1 [Compound 1119] | 800 to 2500 nM |  |
| C[C@@H](NC(=O)[C@H](Cc1ccc(-c2ncc(-c3ccc(Oc4ccccc4)cc3)cn2)cc1)NC(=O)c1ccc(C(C)(C)C)s1)C(=O)O [Compound 1000] | 5000 to 10000 nM |  |
| CCc1ccc(/C(C)=C/c2cnc(-c3ccc(C[C@H](NC(=O)c4ccc(C(C)(C)C)s4)C(=O)N[C@H](C)C(=O)O)cc3)nc2)cc1 [Compound 1266] |  | 2500 to 5000 nM |
| CC(C)c1ccc(-c2ccc(-c3cnc(-c4ccc(C[C@H](NC(=O)c5ccc(C(C)(C)C)s5)C(=O)N5CC(C(=O)O)C5)cc4)nc3)c(F)c2)cc1 [Compound 1220] |  | < 800 nM |
| CCCCCCCOc1ccc(-c2cnc(-c3ccc(C[C@H](NC(=O)c4ccc(O)c(F)c4)C(=O)N4CC(C(=O)O)C4)cc3)nc2)cc1 [Compound 1104] | 800 to 2500 nM |  |
| CC(C)CCOc1ccc(-c2cnc(-c3ccc(C[C@H](NC(=O)c4ccc(C(C)(C)C)s4)C(=O)N4CC(C(=O)O)C4)cc3)nc2)cc1 [Compound 799] | 800 to 2500 nM |  |
| CCCCCc1ccc(-c2ccc(-c3cnc(-c4ccc(C[C@H](NC(=O)c5ccc(C(C)(C)C)s5)C(=O)N[C@H](C)C(=O)O)cc4)nc3)cc2)cc1 [Compound 1308] |  | 800 to 2500 nM |
| CCCc1ccc(-c2ccc(-c3cnc(-c4ccc(C[C@H](NC(=O)c5ccc(C(C)C)cc5)C(=O)N5CC(C(=O)O)C5)cc4)nc3)c(F)c2)cc1 [Compound 1408] |  | < 800 nM |
| CCC[C@H]1CC[C@H](C2CCN(c3cnc(-c4ccc(C[C@H](NC(=O)c5ccc(C(C)(C)C)s5)C(=O)N[C@H]5C[C@H](C(=O)O)C5)cc4)nc3)CC2)CC1 [Compound 1447] |  | < 800 nM |
| CCCCCCCOc1ccc(-c2cnc(-c3ccc(C[C@H](NC(=O)c4ccc(C(C)(C)C)s4)C(=O)N4C5CCC4C(C(=O)O)C5)cc3)nc2)cc1 (some centres unmarked) [Compound 1049] | 800 to 2500 nM |  |
| CC(C)(C)c1ccc(C(=O)N[C@@H](Cc2ccc(-c3ncc(-c4ccc(OCC(F)(F)F)cc4)cn3)cc2)C(=O)NC(C(=O)O)C(O)c2ccccc2)s1 (some centres unmarked) [Compound 928] | 2500 to 5000 nM |  |
| CCc1ccc(C(=O)N[C@@H](Cc2ccc(-c3ncc(-c4ccc([C@H]5CC[C@H](CC)CC5)cc4)cn3)cc2)C(=O)O)cn1 [Compound 1390] |  | 5000 to 10000 nM |
| Cc1cc(-c2ccc(-c3cnc(-c4ccc(C[C@H](NC(=O)c5ccc(C(C)(C)C)s5)C(=O)N5CC(C(=O)O)C5)cc4)nc3)c(F)c2)ccc1OC(F)(F)F [Compound 1219] |  | < 800 nM |
| COc1ccc(C2CCN(c3cnc(-c4ccc(CC(NC(=O)c5ccc(C(C)(C)C)s5)C(=O)N5CC(C(=O)O)C5)cc4)nc3)CC2)cc1 (centres unmarked) [Compound 1489] |  | < 800 nM |
| CCCCCCCOc1ccc(-c2cnc(-c3ccc(C[C@H](NC(=O)c4cnn(C(C)(C)C)c4)C(=O)N4CC[C@H](C(=O)O)C4)cc3)nc2)cc1 [Compound 867] | 800 to 2500 nM |  |
| CC(C)(C)c1ccc(C(=O)N[C@@H](Cc2ccc(-c3ncc(-c4ccc(-c5ccc(C(F)(F)F)c(F)c5F)cc4F)cn3)cc2)C(=O)N2CC(C(=O)O)C2)s1 [Compound 1216] |  | < 800 nM |
| CCC[C@H]1CC[C@H](C2CCN(c3cnc(-c4ccc(C[C@H](NC(=O)c5ccc(C(C)(C)C)s5)C(=O)NC(CCCOC)C(=O)O)cc4)nc3)CC2)CC1 (some centres unmarked) [Compound 1458] |  | < 800 nM |
| COc1ccc(-c2cnc(-c3ccc(C[C@H](NC(=O)c4ccc(C(C)(C)C)s4)C(=O)N[C@H](C)C(=O)O)cc3)nc2)c(F)c1OC1CCCC1 [Compound 1019] | 2500 to 5000 nM |  |
| CCCCCCCOc1ccc(-c2cnc(-c3ccc(C[C@H](NC(=O)c4ccc(C(C)(C)C)s4)C(=O)NC)cc3)nc2)cc1 [Compound 383] | 2500 to 5000 nM |  |
| Cc1cccc(NC(=O)c2cccc(-c3cnc(-c4ccc(C[C@H](NC(=O)c5ccc(C(C)(C)C)s5)C(=O)N[C@H](C)C(=O)O)cc4)nc3)c2)c1C [Compound 996] | 800 to 2500 nM |  |
| CCCCCCCOc1ccc(-c2cnc(-c3ccc(C[C@H](NC(=O)c4ccc(C(C)(C)C)cc4)C(=O)N4CC(C(=O)O)C4)cc3)nc2)cc1 [Compound 590, (S)-1-(2-(4-(tert-butyl)benzamido)-3-(4-(5-(4-(heptyloxy)phenyl)pyrimidin-2-yl)phenyl)propanoyl)azetidine-3-carboxylic acid] | < 800 nM |  |
